Source: patent publication US11000033B2, “Ketone or oxime compound, and herbicide” (NISSAN CHEMICAL CORPORATION, priority 2014, dated 2021)

Assays:
Type in all cases: in vivo
[1] = test system: Apera spica-venti; experiment: Test Example 5: herbicidal effect by foliage application, plastic box (symbol L); conditions: 320 g/ha, 3 weeks after application
How it was run: (§1)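 After sowing into sterilized diluvial soil and growing two weeks under glass at 25° C. to 30° C., seedlings receive a uniform foliar spray of diluted emulsion. Damage is judged visually three weeks on.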

[2] = test system: rapeseed; experiment: Test Example 4: effect on crop by soil treatment (symbol g); conditions: application herbicide amount 320 g/ha
How it was run: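 Greenhouse culture at 25° C. to 30° C. followed sowing of seed in spots on sterilized diluvial soil with a soil cover close to 1.5 cm thick.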

[3] = test system: Alopecurus myosuroides; experiment: Test Example 5: herbicidal effect by foliage application, plastic box (symbol J); conditions: 320 g/ha, 3 weeks after application
How it was run: as §1

[4] = test system: Stellaria media; experiment: Test Example 5: herbicidal effect by foliage application, plastic box (symbol P); conditions: 320 g/ha, 3 weeks after application
How it was run: as §1

[5] = test system: Digitaria ciliaris; experiment: Test Example 4: herbicidal effect by soil treatment (symbol F); conditions: application herbicide amount 320 g/ha
How it was run: (§2)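 Seeds were sown in sterilized diluvial soil, covered with about 1.5 cm of soil, and the soil surface was sprayed with a water-diluted emulsion of the compound at a predetermined rate. Plants grew in a greenhouse at 25° C. to 30° C.; effects were scored visually 3 weeks after application.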

[6] = test system: Leptochloa chinensis; experiment: Test Example 3: herbicidal effect by foliage application, Wagner pot (symbol D); conditions: application herbicide amount 320 g/ha
How it was run: (§3)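 Herbicidal activity was rated three weeks after a foliar spray of diluted emulsion concentrate, applied at a predetermined dose to plants grown for 14 days from seed in waterlogged alluvial soil within a 25–30 °C greenhouse.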

[7] = test system: wheat; experiment: Test Example 5: effect on crop by foliage application, plastic box (symbol e); conditions: 320 g/ha, 3 weeks after application
How it was run: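 Soil: sterilized diluvial. Container: plastic box, 21 × 13 cm, 7 cm deep. Sowing: spot-like, ~1.5 cm cover. Growth: greenhouse, 25° C. to 30° C.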

[8] = test system: Alopecurus myosuroides; experiment: Test Example 4: herbicidal effect by soil treatment (symbol J); conditions: application herbicide amount 320 g/ha
How it was run: as §2

[9] = test system: Echinochloa crus-galli var. crus-galli; experiment: Test Example 3: herbicidal effect by foliage application, Wagner pot (symbol H); conditions: application herbicide amount 320 g/ha
How it was run: as §3

[10] = test system: Cyperus difformis; experiment: Test Example 3: herbicidal effect by foliage application, Wagner pot (symbol E); conditions: application herbicide amount 320 g/ha
How it was run: as §3

[11] = test system: corn; experiment: Test Example 4: effect on crop by soil treatment (symbol c); conditions: application herbicide amount 320 g/ha
How it was run: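 Steps: fill box with sterilized diluvial soil; sow seed spot-like; cover with ~1.5 cm soil; grow in greenhouse (25° C. to 30° C.).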

[12] = test system: Abutilon theophrasti; experiment: Test Example 5: herbicidal effect by foliage application, plastic box (symbol M); conditions: 320 g/ha, 3 weeks after application
How it was run: as §1

[13] = test system: Echinochloa oryzacola Vasing.; experiment: Test Example 1: herbicidal activity, application before weed generation in submerged conditions (symbol A); conditions: application herbicide amount 320 g/ha
How it was run: (§4)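 Ratings (5: ≥90%, near complete withering; 4: 70–<90%; 3: 40–<70%; 2: 20–<40%; 1: 5–<20%; 0: ≤5%) were assigned 3 weeks after the diluted emulsion was applied to the water surface of freshly sown, submerged pots.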

[14] = test system: directly sowed rice plant; experiment: Test Example 3: effect on crop by foliage application, Wagner pot (symbol b); conditions: application herbicide amount 320 g/ha
How it was run: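 Greenhouse culture at 25–30 °C of seeded rice, Cyperus difformis, Leptochloa chinensis and Echinochloa crus-galli var. crus-galli, in alluvial soil held under 0.1–0.5 cm of water in a Wagner pot.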

[15] = test system: Scirpus juncoides; experiment: Test Example 1: herbicidal activity, application before weed generation in submerged conditions (symbol B); conditions: application herbicide amount 320 g/ha
How it was run: as §4

CC(CC1CC(O)=C(c2c(C)cc(C)cc2C)C1=O)=NOc1ccccc1 (stereo not drawn) [1-057]
L: Apera spica-venti, herbicidal effect grade [1]: 1 (Herbicidal ratio of 5% or higher and lower than 20%) | g (rapeseed) effect on crop grade [2]: 4 (Herbicidal ratio of 70% or higher and lower than 90%) | J: Alopecurus myosuroides, herbicidal effect grade [3]: 3 (Herbicidal ratio of 40% or higher and lower than 70%) | P: Stellaria media, herbicidal effect grade [4]: 0 (Herbicidal ratio of 5% or lower (almost no effect)) | F (Digitaria ciliaris) herbicidal effect grade [5]: 4 (Herbicidal ratio of 70% or higher and lower than 90%) | herbicidal effect on D (Leptochloa chinensis), grade 0-5 [6]: 3 (Herbicidal ratio of 40% or higher and lower than 70%) | e: wheat, effect on crop grade [7]: 0 (Herbicidal ratio of 5% or lower (almost no effect)) | J (Alopecurus myosuroides) herbicidal effect grade [8]: 4 (Herbicidal ratio of 70% or higher and lower than 90%) | herbicidal effect on H (Echinochloa crus-galli var. crus-galli), grade 0-5 [9]: 4 (Herbicidal ratio of 70% or higher and lower than 90%) | herbicidal effect on E, grade 0-5 [10]: 3 (Herbicidal ratio of 40% or higher and lower than 70%) | c (corn) effect on crop grade [11]: 0 (Herbicidal ratio of 5% or lower (almost no effect)) | M: Abutilon theophrasti, herbicidal effect grade [12]: 1 (Herbicidal ratio of 5% or higher and lower than 20%) | Herbicidal effect grade, A: Echinochloa oryzacola Vasing. [13]: 5 (Herbicidal ratio of 90% or more (almost completely withered)) | effect on crop b (directly sowed rice plant), grade 0-5 [14]: 5 (Herbicidal ratio of 90% or more (almost completely withered)) | Herbicidal effect grade, B: Scirpus juncoides [15]: 3 (Herbicidal ratio of 40% or higher and lower than 70%)

CC(CC1CC(O)=C(c2c(C)cc(C)cc2C)C1=O)=NO (stereo not drawn) [1-058]
L: Apera spica-venti, herbicidal effect grade [1]: 5 (Herbicidal ratio of 90% or more (almost completely withered)) | g (rapeseed) effect on crop grade [2]: 3 (Herbicidal ratio of 40% or higher and lower than 70%) | J: Alopecurus myosuroides, herbicidal effect grade [3]: 5 (Herbicidal ratio of 90% or more (almost completely withered)) | P: Stellaria media, herbicidal effect grade [4]: 0 (Herbicidal ratio of 5% or lower (almost no effect)) | F (Digitaria ciliaris) herbicidal effect grade [5]: 5 (Herbicidal ratio of 90% or more (almost completely withered)) | herbicidal effect on D (Leptochloa chinensis), grade 0-5 [6]: 5 (Herbicidal ratio of 90% or more (almost completely withered)) | e: wheat, effect on crop grade [7]: 5 (Herbicidal ratio of 90% or more (almost completely withered)) | J (Alopecurus myosuroides) herbicidal effect grade [8]: 5 (Herbicidal ratio of 90% or more (almost completely withered)) | herbicidal effect on H (Echinochloa crus-galli var. crus-galli), grade 0-5 [9]: 5 (Herbicidal ratio of 90% or more (almost completely withered)) | herbicidal effect on E, grade 0-5 [10]: 5 (Herbicidal ratio of 90% or more (almost completely withered)) | c (corn) effect on crop grade [11]: 4 (Herbicidal ratio of 70% or higher and lower than 90%) | M: Abutilon theophrasti, herbicidal effect grade [12]: 4 (Herbicidal ratio of 70% or higher and lower than 90%) | Herbicidal effect grade, A: Echinochloa oryzacola Vasing. [13]: 5 (Herbicidal ratio of 90% or more (almost completely withered)) | effect on crop b (directly sowed rice plant), grade 0-5 [14]: 5 (Herbicidal ratio of 90% or more (almost completely withered)) | Herbicidal effect grade, B: Scirpus juncoides [15]: 0 (Herbicidal ratio of 5% or lower (almost no effect))

CON=C(CC1CC(O)=C(c2c(C)cc(C)cc2C)C1=O)C(C)(C)C (stereo not drawn) [1-059]
L: Apera spica-venti, herbicidal effect grade [1]: 4 (Herbicidal ratio of 70% or higher and lower than 90%) | g (rapeseed) effect on crop grade [2]: 0 (Herbicidal ratio of 5% or lower (almost no effect)) | J: Alopecurus myosuroides, herbicidal effect grade [3]: 4 (Herbicidal ratio of 70% or higher and lower than 90%) | P: Stellaria media, herbicidal effect grade [4]: 0 (Herbicidal ratio of 5% or lower (almost no effect)) | F (Digitaria ciliaris) herbicidal effect grade [5]: 4 (Herbicidal ratio of 70% or higher and lower than 90%) | herbicidal effect on D (Leptochloa chinensis), grade 0-5 [6]: 1 (Herbicidal ratio of 5% or higher and lower than 20%) | e: wheat, effect on crop grade [7]: 0 (Herbicidal ratio of 5% or lower (almost no effect)) | J (Alopecurus myosuroides) herbicidal effect grade [8]: 3 (Herbicidal ratio of 40% or higher and lower than 70%) | herbicidal effect on H (Echinochloa crus-galli var. crus-galli), grade 0-5 [9]: 4 (Herbicidal ratio of 70% or higher and lower than 90%) | herbicidal effect on E, grade 0-5 [10]: 3 (Herbicidal ratio of 40% or higher and lower than 70%) | c (corn) effect on crop grade [11]: 3 (Herbicidal ratio of 40% or higher and lower than 70%) | M: Abutilon theophrasti, herbicidal effect grade [12]: 0 (Herbicidal ratio of 5% or lower (almost no effect)) | Herbicidal effect grade, A: Echinochloa oryzacola Vasing. [13]: 5 (Herbicidal ratio of 90% or more (almost completely withered)) | effect on crop b (directly sowed rice plant), grade 0-5 [14]: 5 (Herbicidal ratio of 90% or more (almost completely withered)) | Herbicidal effect grade, B: Scirpus juncoides [15]: 3 (Herbicidal ratio of 40% or higher and lower than 70%)

CON=C(C)CC1CC(OC(=O)C(C)Oc2ccccc2)=C(c2c(C)cc(C)cc2C)C1=O (stereo not drawn) [1-060]
L: Apera spica-venti, herbicidal effect grade [1]: 5 (Herbicidal ratio of 90% or more (almost completely withered)) | g (rapeseed) effect on crop grade [2]: 3 (Herbicidal ratio of 40% or higher and lower than 70%) | J: Alopecurus myosuroides, herbicidal effect grade [3]: 5 (Herbicidal ratio of 90% or more (almost completely withered)) | P: Stellaria media, herbicidal effect grade [4]: 3 (Herbicidal ratio of 40% or higher and lower than 70%) | F (Digitaria ciliaris) herbicidal effect grade [5]: 5 (Herbicidal ratio of 90% or more (almost completely withered)) | herbicidal effect on D (Leptochloa chinensis), grade 0-5 [6]: 5 (Herbicidal ratio of 90% or more (almost completely withered)) | e: wheat, effect on crop grade [7]: 5 (Herbicidal ratio of 90% or more (almost completely withered)) | J (Alopecurus myosuroides) herbicidal effect grade [8]: 5 (Herbicidal ratio of 90% or more (almost completely withered)) | herbicidal effect on H (Echinochloa crus-galli var. crus-galli), grade 0-5 [9]: 5 (Herbicidal ratio of 90% or more (almost completely withered)) | herbicidal effect on E, grade 0-5 [10]: 5 (Herbicidal ratio of 90% or more (almost completely withered)) | c (corn) effect on crop grade [11]: 4 (Herbicidal ratio of 70% or higher and lower than 90%) | M: Abutilon theophrasti, herbicidal effect grade [12]: 3 (Herbicidal ratio of 40% or higher and lower than 70%) | Herbicidal effect grade, A: Echinochloa oryzacola Vasing. [13]: 5 (Herbicidal ratio of 90% or more (almost completely withered)) | effect on crop b (directly sowed rice plant), grade 0-5 [14]: 5 (Herbicidal ratio of 90% or more (almost completely withered)) | Herbicidal effect grade, B: Scirpus juncoides [15]: 4 (Herbicidal ratio of 70% or higher and lower than 90%)

CON=C(CC1CC(OC(=O)COc2ccccc2)=C(c2c(C)cc(C)cc2C)C1=O)C1CC1 (stereo not drawn) [1-063]
L: Apera spica-venti, herbicidal effect grade [1]: 5 (Herbicidal ratio of 90% or more (almost completely withered)) | g (rapeseed) effect on crop grade [2]: 0 (Herbicidal ratio of 5% or lower (almost no effect)) | J: Alopecurus myosuroides, herbicidal effect grade [3]: 5 (Herbicidal ratio of 90% or more (almost completely withered)) | P: Stellaria media, herbicidal effect grade [4]: 0 (Herbicidal ratio of 5% or lower (almost no effect)) | F (Digitaria ciliaris) herbicidal effect grade [5]: 5 (Herbicidal ratio of 90% or more (almost completely withered)) | herbicidal effect on D (Leptochloa chinensis), grade 0-5 [6]: 5 (Herbicidal ratio of 90% or more (almost completely withered)) | e: wheat, effect on crop grade [7]: 4 (Herbicidal ratio of 70% or higher and lower than 90%) | J (Alopecurus myosuroides) herbicidal effect grade [8]: 5 (Herbicidal ratio of 90% or more (almost completely withered)) | herbicidal effect on H (Echinochloa crus-galli var. crus-galli), grade 0-5 [9]: 5 (Herbicidal ratio of 90% or more (almost completely withered)) | herbicidal effect on E, grade 0-5 [10]: 5 (Herbicidal ratio of 90% or more (almost completely withered)) | c (corn) effect on crop grade [11]: 4 (Herbicidal ratio of 70% or higher and lower than 90%) | M: Abutilon theophrasti, herbicidal effect grade [12]: 2 (Herbicidal ratio of 20% or higher and lower than 40%) | Herbicidal effect grade, A: Echinochloa oryzacola Vasing. [13]: 5 (Herbicidal ratio of 90% or more (almost completely withered)) | effect on crop b (directly sowed rice plant), grade 0-5 [14]: 5 (Herbicidal ratio of 90% or more (almost completely withered)) | Herbicidal effect grade, B: Scirpus juncoides [15]: 3 (Herbicidal ratio of 40% or higher and lower than 70%)
